The values that follow are results of earlier work, collected in patent US8883846B2, “Synthesis of bicyclic compounds and method for their use as therapeutic agents” (priority 2010, dated 2014).

This data set relates to influenza A H1N1 viruses, neuraminidase mutation Q136K. The conditions noted are these: Australian and South East Asian influenza A H1N1 viruses; cited from earlier work.

Turning to `CC(=O)N[C@H]1[C@H]([C@H](O)[C@H](O)CO)OC(C(=O)O)=C[C@@H]1N=C(N)N` [zanamivir], the reduction in susceptibility is 300 fold.

Regarding `CCC(CC)[C@H](NC(C)=O)[C@@H]1[C@H](O)[C@@H](C(=O)O)C[C@H]1N=C(N)N` [peramivir], the reduction in susceptibility is 70 fold.
